Results as given in publication PMC6691192 (Chemical communications (Cambridge, England), 2019).

Tested on: non-cancerous human breast cell line MCF-10A
Assay: Cell viability assay
Assay type: cell-based
Settings: for EC50(C)/EC50 (B): selectivity ratio MCF-10A over BT-474; for EC50(C)/EC50(A): selectivity ratio MCF-10A over MCF-7

Compound	EC50(C)/EC50 (B)	EC50(C)/EC50(A)
CC[P](CC)(CC)=[Au][S][C@@H]1O[C@H](COC(C)=O)[C@@H](OC(C)=O)[C@H](OC(C)=O)[C@H]1OC(C)=O [AF, [(2R,3R,4S,5R,6S)-3,4,5-tris(acetyloxy)-6-{[(triethyl-λ5-phosphanylidene)aurio]sulfanyl}oxan-2-yl]methyl acetate]	0.81 ± 0.13	0.78 ± 0.11
[Cl][Au].c1ccc(P(c2ccccc2)c2ccccc2)cc1 [[AuCl(PPh3)]]	5.70 ± 0.43	5.30 ± 0.61
[Au(mba)(PPh3)]	1.57 ± 0.13	2.34 ± 0.35
